The record followed here is patent US11591596B2, “Compounds and compositions including phosphorothioated oligodeoxynucleotide, and methods of use thereof” (City of Hope, priority 2015, dated 2023).

In assay [1] the test system is human AML cells KG1a, MOLM13, and MOLM14. Description: Uptake of Cy3-labeled CpG-anti-miR146a by cultured AML cells. The assay is classed as cell-based. As to conditions: even at low concentrations.
Assay [2] concerns IRAK1 (miR146a target). Nature of the assay: Immunoblot of downstream target IRAK1. The assay is classed as cell-based, mouse or human. Particulars: for IRAK1 (downstream target regulation): 500 nM, 48 hrs, RAW264.7 or A20 cells. As for the experimental part: (§1) FIGS. 20A-20D. Effects of CpG-anti-miRNAs on downstream targets. […] Mouse RAW264.7 or human MV4-11 cells were incubated with 250 nM or 500 nM of CpG-anti-miR155, CpG-anti-miR125b, or CpG-anti-miR146a, or 500 nM of CpG-scramble for 48 h, then the cell lysates were collected and electrophoresed and immunoblotted by antibodies against SHIP1 (miR155 target) (FIG. 20A), IRF4 (miR125b target) (FIG. 20B), or IRAK1 (miR146a target) (FIG. 20C). The band intensities were normalized against β-actin and quantified. Fold induction over the control protein levels are indicated below the blot. FIG. 20D) MV4-11 cells were incubated with 500 nM of CpG-anti-miR155, CpG-antimiR125b, CpG-anti-miR146a, or CpG-scramble for 24 h, then cell lysates were collected and electrophoresed and immunoblotted to detect activated caspase 3 indicating induction of apoptosis.
(§2) FIGS. 21A-21H. Comparing the inhibition effects of CpG-anti-miR and GpC-anti-miR. […] The cells were incubated with 100 nM CpG-anti-miRs or GpC-anti-miRs for 18 hrs. […] RAW264.7 (FIGS. 21E,21G) or A20 cells (FIGS. 21F,21H) were incubated with 500 nM of CpG-anti-miR155, GpC-anti-miR155, or CpG-anti-miR146a, GpC-anti-miR146a for 48 hrs, then the cell lysates were collected and immunoblotted using antibodies against SHIP1 (miR155 target) or IRAK1 (miR146a target)
Mouse RAW264.7 or human MV4-11 cells were incubated with 250 nM or 500 nM of CpGanti-miR155, CpG-anti-miR125b, or CpG-anti-miR146a, or 500 nM of CpG-scramble for 48 h, then the cell lysates were collected and electrophoresed and immunoblotted by antibodies against SHIP1 (miR155 target) (FIG. 20A), IRF4 (miR125b target) (FIG. 20B), or IRAK1 (miR146a target) (FIG. 20C). The band intensities were normalized against β-actin and quantified. Fold induction over the control protein levels are indicated below the blot. FIG. 20D) MV4-11 cells were incubated with 500 nM of CpG-anti-miR155, CpG-antimiR125b, CpG-anti-miR146a, or CpG-scramble for 24 h, then cell lysates were collected and electrophoresed and immunoblotted to detect activated caspase 3 indicating induction of apoptosis. […]

Assay [3] concerns Human immune cells (CD14+ monocytes, CD1c+ mDCs, CD3+ T cells and CD19+ B cells). Nature of the assay: Uptake of Cy3-labeled CpG-anti-miRs by human immune cells, flow cytometry. In kind it is cell-based. Particulars: for intracellular uptake: Cy3-labeled, human immune cells. As for the experimental part: FIGS. 16A-16B. Cell-selective uptake of CpG-anti-miR146a. […] CpG-anti-miR146a was Cy3-labeled to detect the intracellular uptake by target cells using flow cytometry. FIG. 16A) Human immune cells were incubated with indicated concentrations of CpG-anti-miR146acY3 for 1 hr. The uptake by CD14+ monocytes, CD1c+ mDCs, CD3+ T cells and CD19+ B cells was measured using flow cytometry.
where * indicates a phosphorothioate linkage, mN indicates a 2′OMe modified nucleotide, and x indicates a linker described herein. CpG-anti-miRNAs were Cy3-labeled to detect the intracellular uptake by target cells using flow cytometry. […] Treatment of these compounds reduces the corresponding miR expression in human and mouse myeloid cells (FIGS. 17A-17F, 18A-18F, 19A-19H).
(Flow cytometry measures light scatter and fluorescence of single cells or particles in a stream.)

Assay [4] relates to miR-146a. Description: Mature miR-146a expression by TAQMAN qPCR. As to conditions: 100 nM. In kind it is cell-based, human and mouse. The procedure: FIGS. 19A-19H. Inhibitory effects of CpG-anti-miR146a. […] Mouse RAW264.7 (macrophages) (FIG. 19A) and DC2.4 (dendritic cells) (FIG. 19B) as well as human MV4-11 (FIG. 19C) and KG1a AML (FIG. 19D) cells were incubated with 100 nM CpG-anti-miR146a or CpG-scrambled RNA (negative control) for 18 h and then treated with 1 vg/ml LPS for 4 h. KG1a, MOLM13 (FIG. 19E), and MOLM14 (FIG. 19F) cells were incubated with 100 nM CpG-anti-miR146a or CpG-scrambled RNA for 18 h. FIGS. 19G-19H) Mouse CMM AML cells (FIG. 19G) and A20 lymphoma cells (FIG. 19H) were incubated with 100 nM CpG-miR146a mimic for 18 h. Mature miR-146a expression was measured using TAQMAN® qPCR assay and normalized to snoRNA234 levels. miR-146a expression level in untreated samples was set as 1.0. Data are shown as means±SEM (n=3). *P<0.05.
as §2
The cells were incubated with 100 nM CpG-anti-miRs or GpC-anti-miRs for 18 hrs. […] RAW264.7 (FIGS. 21E,21G) or A20 cells (FIGS. 21F,21H) were incubated with 500 nM of CpG-anti-miR155, GpC-anti-miR155, or CpG-anti-miR146a, GpC-anti-miR146a for 48 hrs, then the cell lysates were collected and immunoblotted using antibodies against SHIP1 (miR155 target) or IRAK1 (miR146a target).
For orientation: Quantitative PCR measures a nucleic acid by following its amplification.

Assay [5] deals with miR-125b. Description: Mature miR-125b expression by TAQMAN qPCR. In kind it is cell-based, human and mouse. As to conditions: 100 nM, 18 h; various cell models. The procedure: FIGS. 18A-18F. Inhibitory effects of CpG-anti-miR125b. […] RAW264.7 (FIG. 18A), DC2.4 (FIG. 18B), and MV4-11 (FIG. 18C) cells were incubated with 100 nM CpG-anti-miR125b or CpG-scrambled RNA (negative control) for 18 h and then treated with 1 vg/mILPS for 4 h. Human AML cells—KG1a (FIG. 18D), MOLM13 (FIG. 18E), and MOLM14 (FIG. 18F)—were incubated with 100 nM CpG-anti-miR125b or control CpG-scrambled RNA for 18 h. Mature miR-125b expression was measured using TAQMAN® qPCR assay and normalized to snoRNA234 levels. miR-125b expression level in untreated samples was set as 1.0. Data are shown as means±SEM (n=3). *P<0.05.

Assay [6] deals with IRF4 (miR125b target). Nature of the assay: Immunoblot of downstream target IRF4. The assay is classed as cell-based, mouse or human. Particulars: 250 nM or 500 nM, 48 h; RAW264.7 or MV4-11 cells. The procedure: as §1
Mouse RAW264.7 or human MV4-11 cells were incubated with 250 nM or 500 nM of CpGanti-miR155, CpG-anti-miR125b, or CpG-anti-miR146a, or 500 nM of CpG-scramble for 48 h, then the cell lysates were collected and electrophoresed and immunoblotted by antibodies against SHIP1 (miR155 target) (FIG. 20A), IRF4 (miR125b target) (FIG. 20B), or IRAK1 (miR146a target) (FIG. 20C). The band intensities were normalized against β-actin and quantified. Fold induction over the control protein levels are indicated below the blot. […]
In general terms: Immunoblotting shows a protein as a band on a membrane.

Assay [7] relates to miR-126. Nature of the assay: miR-126 expression in K562 and MV4-11 cells with miR-126 inhibitors or mimics. The assay is classed as cell-based. As to conditions: 500 nM, 24 hours. As for the experimental part:
FIGS. 26A-26E. Effective knockdown of miR-126 with miR-126 inhibitors conjugated with CpG, GpC and PS, and effective over-expression with miR-126 mimics in K562 and MV4-11 cells. K562 and MV4-11 cells were treated with miR-126 inhibitors conjugated with CpG, GpC, PS (FIGS. 26A-26B) or miR-126 mimics (615, 616 and 617) (FIGS. 26C-26D) (500 nM) for 24 hours, and miR-126 expression was measured in these cells. […] FIG. 26E) Tabulation of sequence set forth herein.
Effective knockdown of miR-126 with miR-126 inhibitors conjugated with CpG, GpC and PS, and effective over-expression with miR-126 mimics in K562 and MV4-11 cells. K562 and MV4-11 cells were treated with miR-126 inhibitors conjugated with CpG, GpC, PS (FIGS. 26A-26B) or miR-126 mimics (615, 616 and 617) (FIGS. 26C-26D) (500 nM) for 24 hours, and miR-126 expression was measured in these cells.

Assay [8] has as its system miR-155. Nature of the assay: Mature miR-155 expression by TAQMAN qPCR. The assay is classed as cell-based, human and mouse. As to conditions: 100 nM. The procedure: FIGS. 17A-17F. Inhibitory effects of CpG-anti-miR155. […] Mouse RAW264.7 (macrophages) (FIG. 17A) and DC2.4 (dendritic cells) (FIG. 17B) as well as human MV4-11 AML cells (FIG. 17C) were incubated with 100 nM CpG-anti-miR155 or CpG-scrambled RNA (negative control) for 18 h and then treated with 1 vg/ml LPS for 4 h. KG1a (FIG. 17D), MOLM13 (FIG. 17E), and MOLM14 (FIG. 17F) cells were incubated with 100 nM CpG-anti-miR155 or CpG-scrambled RNA for 18 h. Mature miR-155 expression was measured using TAQMAN® qPCR assay and normalized to snoRNA234 levels. miR-155 expression level in untreated samples was set as 1.0. Data are shown as means±SEM (n=3). *P<0.05.
as §2
The cells were incubated with 100 nM CpG-anti-miRs or GpC-anti-miRs for 18 hrs. […]

Assay [9] concerns SHIP1 (miR155 target). Nature of the assay: Immunoblot of downstream target SHIP1. The assay is classed as cell-based, mouse or human. The procedure:
as §1
FIGS. 21A-21H. Comparing the inhibition effects of CpG-anti-miR and GpC-anti-miR. […]
Mouse RAW264.7 or human MV4-11 cells were incubated with 250 nM or 500 nM of CpGanti-miR155, CpG-anti-miR125b, or CpG-anti-miR146a, or 500 nM of CpG-scramble for 48 h, then the cell lysates were collected and electrophoresed and immunoblotted by antibodies against SHIP1 (miR155 target) (FIG. 20A), IRF4 (miR125b target) (FIG. 20B), or IRAK1 (miR146a target) (FIG. 20C). The band intensities were normalized against β-actin and quantified. […]

The mark [10] stands for this setting: 250 nM or 500 nM, 48 h, RAW264.7 or MV4-11 cells.
The mark [11] stands for this setting: 18 h, human and mouse myeloid cells.

As to “5′ G*G*T GCA TCG ATG CAGG*G*G* G*G xxxxx mC*mC*mC*mA*mU*mG*mG*mA*mA*mU*mU*mC*mA*mG*mU*mU*mC*mU*mC*mA 3′ [CpG-anti-miR146a]”, the “internalization by cultured AML cells” value in [1] was “rapidly internalize”. In addition, the IRAK1 protein level entry in assay [2] (setting [10]) was “upregulated”. Moreover, the “IRAK1 (downstream target regulation)” value in assay [2] is recorded as “regulates downstream targets”. The intracellular uptake result in assay [3] was “uptake of these compounds was observed”. The “internalization by target immune and leukemic cells” value in assay [3] (without any transfection reagents) was “Dose and time dependent internalization”. For the same substance, the miR-146a expression entry in [4] (setting [11]) is “reduces miR-146a expression”; in assay [4] (18 hrs, RAW264.7 and A20 cells) it was “reduces miR155 or miR-146a expression”.

For “5′ G*G*T GCA TCG ATG CAGG*G*G* G*G xxxxx mU*mC*mA*mC*mA*mA*mG*mU*mU*mA*mG*mG*mG*mU*mC*mU*mC*mA*mG*mG*mG*mA 3′ [CpG-anti-miR125b]”, in [5], the miR-125b expression result is recorded as “reduces miR-125b expression”. Further, the intracellular uptake entry in assay [3] was “uptake of these compounds was observed”. Besides, the “IRF4 protein level (downstream target regulation)” value in assay [6] is “regulate downstream targets”.

With “5′ G*G*T*G*C*A*T*C*G*A*T*G*C*A*G*G*G*G*G*G (SEQ ID NO: 3) xxxxx mC*mG*mC* mA*mU*mU* mA*mU*mU* mA*mC*mU* mC*mA*mC* mG*mG*mU* mA*mC*mG*mA (SEQ ID NO: 48) 3′ [completely PS-modified oligo]”, in [7], the “miR-126 expression (knockdown by inhibitors)” value is given as “succeeds in blocking miR126”.

Regarding “5′ G*GT. GCA TGC ATG CAG G*G*G*G*G (SEQ ID NO: 2) xxxxx mCmGmC mAmUmU mAmUmU mAmCmU mCmAmC mGmGmU mAmCmG mA (SEQ ID NO: 17) 3′ [GpC]”, in assay [7], the “miR-126 expression (knockdown by inhibitors)” value is recorded as “succeeds in blocking miR126”.

“5′G*G*T GCA TCG ATG CAGG*G*G* G*G xxxxx mA*mC*mC*mC*mC*mU*mA*mU*mC*mA*mC*mA*mA*mU*mU*mA*mG*mC*mA*mU*mU*mA*mA 3′ [CpG-anti-miR155]”: the miR-155 expression entry in assay [8] (setting [11]) is recorded as “reduces miR-155 expression”. Further, in [8] (18 hrs, RAW264.7 and A20 cells), the miR155 expression entry is listed as “reduces miR155 or miR-146a expression”. Moreover, the SHIP1 protein level entry in [9] (setting [10]) is recorded as “upregulated”. Besides, the “SHIP1 (downstream target regulation)” value in [9] (500 nM, 48 hrs, RAW264.7 or A20 cells) is “regulates downstream targets”. The intracellular uptake result in [3] is “uptake of these compounds was observed”.

In the case of “G*G*T GCA TGC ATG CAGG*G*G* G*G (SEQ ID NO: 2) xxxxx mC*mC*mC*mA*mT*mG*mG*mA*mA*mT*mT*mC*mA*mG*mT*mT*mC*mT*mC*mA (SEQ ID NO: 36) 3′ [GpC-anti-miR146a]”, the “IRAK1 (downstream target regulation)” value in assay [2] is “regulates downstream targets”. In assay [4] (18 hrs, RAW264.7 and A20 cells), the miR-146a expression entry is “reduces miR155 or miR-146a expression”.
